One test addresses T1, KRas^WT (Homo sapiens, UniProt P01116).
T1 construct: […]; biotin (biotinylated); purchased Accelegan Inc
Nature of the test: KRas binding assay (TR-FRET displacement of Cy5 labelled tracer).

In the next test the target is T2, KRas^G12A (Homo sapiens, UniProt P01116, G12A).
T2 construct: […]; biotin (biotinylated); purchased Accelegan Inc
Described as above.

For the next test, the target named is T3, KRas^G12D (Homo sapiens, UniProt P01116, G12D).
T3 construct: […]; biotin (biotinylated); purchased Accelegan Inc
The description is as above.

In a further test the target is T4, KRas^G12R (Homo sapiens, UniProt P01116, G12R).
T4 construct: […]; biotin (biotinylated); purchased Accelegan Inc
The test is described as above.

For the next test, the target named is T5, KRas^G12S (Homo sapiens, UniProt P01116, G12S).
T5 construct: […]; biotin (biotinylated); purchased Accelegan Inc
The test is described as above.

Another test deals with T6, KRas^G12V (Homo sapiens, UniProt P01116, G12V).
T6 construct: […]; biotin (biotinylated); purchased Accelegan Inc
Described as above.

The target in the next test is KRas^G12C (Homo sapiens, UniProt P01116, G12C). In words: biochemical.
In the next test the target is KRas^G13D (Homo sapiens, UniProt P01116, G13D). In words: biochemical.
The target of another test is KRas^Q61H (Homo sapiens, UniProt P01116, Q61H). Nature of the test: biochemical.

SMILES strings stand for the structures.

One may read the IC50 as the midpoint of a concentration-inhibition curve. A higher IC50 goes with lower potency.

T4 sequence (P01116 1-169 isoform P01116-2 G12R): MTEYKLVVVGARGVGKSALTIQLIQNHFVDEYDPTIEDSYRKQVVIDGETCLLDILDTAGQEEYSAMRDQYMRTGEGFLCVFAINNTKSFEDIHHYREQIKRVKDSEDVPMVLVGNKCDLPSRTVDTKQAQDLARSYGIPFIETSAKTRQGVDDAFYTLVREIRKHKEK
T5 sequence (P01116 1-169 isoform P01116-2 G12S): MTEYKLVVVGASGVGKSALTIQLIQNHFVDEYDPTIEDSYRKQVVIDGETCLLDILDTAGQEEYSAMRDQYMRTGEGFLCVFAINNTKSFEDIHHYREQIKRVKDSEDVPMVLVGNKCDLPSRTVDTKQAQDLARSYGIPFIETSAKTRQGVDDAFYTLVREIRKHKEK
Sequence of KRas^G12C (P01116 1-169 isoform P01116-2 G12C): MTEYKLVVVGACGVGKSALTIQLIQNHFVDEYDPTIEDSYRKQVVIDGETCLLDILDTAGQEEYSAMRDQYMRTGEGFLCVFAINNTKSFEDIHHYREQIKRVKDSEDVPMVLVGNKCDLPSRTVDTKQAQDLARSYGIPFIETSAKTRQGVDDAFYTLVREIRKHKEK
T6 sequence (P01116 1-169 isoform P01116-2 G12V): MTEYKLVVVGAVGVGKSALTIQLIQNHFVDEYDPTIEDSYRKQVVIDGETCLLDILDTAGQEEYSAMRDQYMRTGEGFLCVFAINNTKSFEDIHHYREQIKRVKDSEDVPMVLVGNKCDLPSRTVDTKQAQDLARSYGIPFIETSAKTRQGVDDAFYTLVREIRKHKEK
Sequence of KRas^Q61H (P01116 1-169 isoform P01116-2 Q61H): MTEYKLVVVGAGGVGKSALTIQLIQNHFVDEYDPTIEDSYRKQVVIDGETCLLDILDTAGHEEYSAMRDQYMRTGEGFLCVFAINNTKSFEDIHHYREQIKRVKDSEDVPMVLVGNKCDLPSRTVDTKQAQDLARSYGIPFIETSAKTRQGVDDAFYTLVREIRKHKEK
T3 sequence (P01116 1-169 isoform P01116-2 G12D): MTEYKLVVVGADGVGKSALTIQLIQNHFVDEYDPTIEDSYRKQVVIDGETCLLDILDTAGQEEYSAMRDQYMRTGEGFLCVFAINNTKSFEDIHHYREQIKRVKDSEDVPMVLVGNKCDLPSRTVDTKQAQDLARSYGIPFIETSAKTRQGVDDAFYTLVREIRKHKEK
T2 sequence (P01116 1-169 isoform P01116-2 G12A): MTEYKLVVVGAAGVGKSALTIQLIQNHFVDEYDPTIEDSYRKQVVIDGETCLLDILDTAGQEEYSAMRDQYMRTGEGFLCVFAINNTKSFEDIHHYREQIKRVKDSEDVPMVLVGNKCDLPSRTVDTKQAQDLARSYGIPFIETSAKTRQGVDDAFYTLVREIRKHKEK
T1 sequence (P01116 1-169 isoform P01116-2): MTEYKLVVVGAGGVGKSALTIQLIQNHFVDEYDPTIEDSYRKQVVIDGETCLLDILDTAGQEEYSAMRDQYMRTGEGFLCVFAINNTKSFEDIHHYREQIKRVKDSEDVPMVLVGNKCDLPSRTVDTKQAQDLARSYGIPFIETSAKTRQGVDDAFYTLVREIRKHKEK
Sequence of KRas^G13D (P01116 1-169 isoform P01116-2 G13D): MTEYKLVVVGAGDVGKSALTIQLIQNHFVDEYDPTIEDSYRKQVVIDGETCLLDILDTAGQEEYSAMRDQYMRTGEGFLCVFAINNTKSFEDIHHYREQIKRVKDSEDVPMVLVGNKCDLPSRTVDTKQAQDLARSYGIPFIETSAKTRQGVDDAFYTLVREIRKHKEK
Protocol for KRas^G12A: (§1) The ability of a compound to bind to KRas was measured using a TR-FRET displacement assay. […] After a 60-minute incubation at room temperature, the reaction was measured using a BMG LABTECH CLARIO star Plus via TR-FRET. […] The POC values were fit to a 4-parameter IC50 equation and the IC50 value reported.
Protocol for KRas^G12C: as §1
Protocol for KRas^G12D: as §1
Protocol for KRas^G12R: as §1
Protocol for KRas^G12S: as §1
Protocol for KRas^G12V: as §1
Protocol for KRas^G13D: as §1
Protocol for KRas^Q61H: as §1
Protocol for KRas^WT: as §1

With `CCc1cccc2cccc(N3CCc4c(nc(OCC56CCCN5CCC6)nc4N4CCCN(C(=O)c5ccco5)CC4)C3)c12` [Example 102, (4-(7-(8-ethylnaphthalen-1-yl)-2-((tetrahydro-1H-pyrrolizin-7a(5H)-yl)methoxy)-5,6,7,8-tetrahydropyrido[3,4-d]pyrimidin-4-yl)-1,4-diazepan-1-yl)(furan-2-yl)methanone], the half-maximal inhibitory concentration (IC50) at KRas^WT was 0.357 µM; on KRas^G12A it was 0.805 µM; on KRas^G12D, 15 µM; at KRas^G12R it was 3.08 µM; at KRas^G12S, 3.09 µM; on KRas^G12V, 6.45 µM. Also, the IC50 amounted to 2.99 µM on KRas^G12C, 0.363 µM at KRas^G13D and 0.424 µM against KRas^Q61H.
Consider `CCc1cccc2cccc(N3CCc4c(nc(OCC56CCCN5CCC6)nc4N4CCOC(CC(N)=O)C4)C3)c12` (stereo not drawn) [Example 103, 2-(4-(7-(8-ethylnaphthalen-1-yl)-2-((tetrahydro-1H-pyrrolizin-7a(5H)-yl)methoxy)-5,6,7,8-tetrahydropyrido[3,4-d]pyrimidin-4-yl)morpholin-2-yl)acetamide], for which the half-inhibitory concentration (IC50) came out at 0.718 µM at KRas^WT; 0.785 µM on KRas^G12A; 2.58 µM at KRas^G12D; 0.364 µM at KRas^G12R; 0.791 µM on KRas^G12S; 1.39 µM at KRas^G12V. The 50% inhibitory concentration (IC50) amounted to 0.427 µM against KRas^G12C, 0.691 µM against KRas^G13D and 0.69 µM against KRas^Q61H.
`CCc1cccc2cccc(N3CCc4c(nc(OCC56CCCN5CCC6)nc4N4CCCC(c5nc(=O)[nH][nH]5)C4)C3)c12` (stereo not drawn) [Example 104, 5-(1-(7-(8-ethylnaphthalen-1-yl)-2-((tetrahydro-1H-pyrrolizin-7a(5H)-yl)methoxy)-5,6,7,8-tetrahydropyrido[3,4-d]pyrimidin-4-yl)piperidin-3-yl)-1,2-dihydro-3H-1,2,4-triazol-3-one]: the 50% inhibitory concentration (IC50) on KRas^WT came to 1.59 µM; at KRas^G12A it was 0.755 µM; at KRas^G12D, 4.2 µM; at KRas^G12R it was 0.365 µM; on KRas^G12S, 1.12 µM; at KRas^G12V, 0.852 µM. Further, the IC50 stood at 0.894 µM against KRas^G12C, 1.8 µM against KRas^G13D and 1.98 µM at KRas^Q61H.
In the case of `CCc1cccc2cccc(N3CCc4c(nc(OCC56CCCN5CCC6)nc4N4CC(C)CC(C(N)=O)C4)C3)c12` (stereo not drawn) [Example 105, 1-(7-(8-ethylnaphthalen-1-yl)-2-((tetrahydro-1H-pyrrolizin-7a(5H)-yl)methoxy)-5,6,7,8-tetrahydropyrido[3,4-d]pyrimidin-4-yl)-5-methylpiperidine-3-carboxamide], the IC50 on KRas^WT was 0.469 µM; on KRas^G12A it was 0.382 µM; on KRas^G12D, 0.607 µM; at KRas^G12R, 0.461 µM; on KRas^G12S, 0.385 µM; on KRas^G12V it was 0.368 µM. Besides, the IC50 against KRas^G12C amounted to 0.457 µM; against KRas^G13D it was 0.566 µM; against KRas^Q61H, 0.6 µM.
`CCc1cccc2cccc(N3CCc4c(nc(OCC56CCCN5CCC6)nc4N4CCCC(c5nnc6n5CCC6)C4)C3)c12` (stereo not drawn) [Example 106, 4-(3-(6,7-dihydro-5H-pyrrolo[2,1-c][1,2,4]triazol-3-yl)piperidin-1-yl)-7-(8-ethylnaphthalen-1-yl)-2-((tetrahydro-1H-pyrrolizin-7a(5H)-yl)methoxy)-5,6,7,8-tetrahydropyrido[3,4-d]pyrimidine]: the half-maximal inhibitory concentration (IC50) at KRas^WT is 1.42 µM; at KRas^G12A, 0.628 µM; on KRas^G12D it was 2.23 µM; on KRas^G12R, 1.79 µM; on KRas^G12S it was 0.752 µM; on KRas^G12V, 1.3 µM. Also, the IC50 stood at 0.369 µM at KRas^G12C, 1.07 µM against KRas^G13D and 1.46 µM against KRas^Q61H.
For the molecule `CCc1cccc2cccc(N3CCc4c(nc(OCC56CCCN5CCC6)nc4N4CCCC(CO)CC4)C3)c12` (stereo not drawn) [Example 107, (1-(7-(8-ethylnaphthalen-1-yl)-2-((tetrahydro-1H-pyrrolizin-7a(5H)-yl)methoxy)-5,6,7,8-tetrahydropyrido[3,4-d]pyrimidin-4-yl)azepan-4-yl)methanol], the half-inhibitory concentration (IC50) on KRas^WT is 0.369 µM; at KRas^G12A, 0.423 µM; on KRas^G12D, 1.45 µM; at KRas^G12R it was 0.638 µM; on KRas^G12S it was 0.535 µM; at KRas^G12V, 0.406 µM. Besides, the IC50 against KRas^G12C was 0.487 µM; against KRas^G13D it was 0.465 µM; against KRas^Q61H, 0.528 µM.
Consider `CCc1cccc2cccc(N3CCc4c(nc(OCC56CCCN5CCC6)nc4N4CCCC(c5n[nH]c(C6CC6)n5)C4)C3)c12` (stereo not drawn) [Example 108, 4-(3-(5-cyclopropyl-1H-1,2,4-triazol-3-yl)piperidin-1-yl)-7-(8-ethylnaphthalen-1-yl)-2-((tetrahydro-1H-pyrrolizin-7a(5H)-yl)methoxy)-5,6,7,8-tetrahydropyrido[3,4-d]pyrimidine], for which the IC50 at KRas^WT was 1.55 µM; at KRas^G12A, 0.656 µM; on KRas^G12D it was 4.09 µM; on KRas^G12R it was 0.381 µM; at KRas^G12S, 0.975 µM; on KRas^G12V, 0.948 µM. Moreover, the IC50 against KRas^G12C amounted to 0.485 µM; against KRas^G13D, 1.29 µM; on KRas^Q61H, 1.6 µM.
In the case of `CCc1cccc2cccc(N3CCc4c(nc(OCC56CCCN5CCC6)nc4N4CCC(O)C(CO)C4)C3)c12` (stereo not drawn) [Example 109, 1-(7-(8-ethylnaphthalen-1-yl)-2-((tetrahydro-1H-pyrrolizin-7a(5H)-yl)methoxy)-5,6,7,8-tetrahydropyrido[3,4-d]pyrimidin-4-yl)-3-(hydroxymethyl)piperidin-4-ol], the IC50 on KRas^WT was 0.519 µM; at KRas^G12A it was 0.735 µM; on KRas^G12D, 1.77 µM; on KRas^G12R it was 0.387 µM; on KRas^G12S it was 0.612 µM; on KRas^G12V, 0.69 µM. Further, the figures for the IC50 on KRas^G12C, against KRas^G13D and against KRas^Q61H were 0.456 µM, 0.893 µM and 0.898 µM, respectively.
`CCc1cccc2cccc(N3CCc4c(nc(OCC56CCCN5CCC6)nc4N4CCCC(O)(C(F)(F)F)C4)C3)c12` (stereo not drawn) [Example 110, 1-(7-(8-ethylnaphthalen-1-yl)-2-((tetrahydro-1H-pyrrolizin-7a(5H)-yl)methoxy)-5,6,7,8-tetrahydropyrido[3,4-d]pyrimidin-4-yl)-3-(trifluoromethyl)piperidin-3-ol]: the IC50 on KRas^WT came out at 0.4 µM; at KRas^G12A, 0.595 µM; on KRas^G12D it was 0.726 µM; on KRas^G12R it was 0.788 µM; on KRas^G12S, 0.551 µM; on KRas^G12V, 0.566 µM. Moreover, the figures for the IC50 on KRas^G12C, against KRas^G13D and against KRas^Q61H were 0.639 µM, 0.412 µM and 0.491 µM, respectively.
`CCc1cccc2cccc(N3CCc4c(nc(OCC56CCCN5CCC6)nc4N4C[C@@H](C)C[C@@H](O)C4)C3)c12` [Example 111, (3R,5S)-1-(7-(8-ethylnaphthalen-1-yl)-2-((tetrahydro-1H-pyrrolizin-7a(5H)-yl)methoxy)-5,6,7,8-tetrahydropyrido[3,4-d]pyrimidin-4-yl)-5-methylpiperidin-3-ol]: the concentration for half-maximal inhibition (IC50) at KRas^WT was 0.411 µM; at KRas^G12A, 0.44 µM; at KRas^G12D it was 0.602 µM; at KRas^G12R, 0.546 µM; at KRas^G12S, 0.486 µM; on KRas^G12V, 0.404 µM. For the same molecule, the IC50 turned out to be 0.417 µM on KRas^G12C, 0.544 µM on KRas^G13D and 0.513 µM against KRas^Q61H.
`CCc1cccc2cccc(N3CCc4c(nc(OCC56CCCN5CCC6)nc4N4CCCC(P(C)(C)=O)C4)C3)c12` (stereo not drawn) [Example 112, (1-(7-(8-ethylnaphthalen-1-yl)-2-((tetrahydro-1H-pyrrolizin-7a(5H)-yl)methoxy)-5,6,7,8-tetrahydropyrido[3,4-d]pyrimidin-4-yl)piperidin-3-yl)dimethylphosphine oxide]: the IC50 at KRas^WT turned out to be 0.412 µM; at KRas^G12A, 1.34 µM; at KRas^G12D it was 7.29 µM; at KRas^G12R it was 2.09 µM; at KRas^G12S, 1.33 µM; at KRas^G12V, 1.58 µM. The IC50 amounted to 1.57 µM against KRas^G12C, 0.581 µM at KRas^G13D and 0.064 µM on KRas^Q61H.
Take `CCc1cccc2cccc(N3CCc4c(nc(OCC56CCCN5CCC6)nc4N(C)CC(C)(C)O)C3)c12` [Example 113, 1-((7-(8-ethylnaphthalen-1-yl)-2-((tetrahydro-1H-pyrrolizin-7a(5H)-yl)methoxy)-5,6,7,8-tetrahydropyrido[3,4-d]pyrimidin-4-yl)(methyl)amino)-2-methylpropan-2-ol]: the 50% inhibitory concentration (IC50) on KRas^WT is 0.509 µM; at KRas^G12A, 0.464 µM; at KRas^G12D, 0.843 µM; at KRas^G12R it was 0.756 µM; at KRas^G12S, 0.601 µM; on KRas^G12V it was 0.45 µM. In addition, the half-maximal inhibitory concentration (IC50) was 0.418 µM against KRas^G12C, 0.654 µM at KRas^G13D and 0.523 µM at KRas^Q61H.
`CCc1cccc2cccc(N3CCc4c(nc(OCC56CCCN5CCC6)nc4N4CCCC(c5ccn[nH]5)C4)C3)c12` (stereo not drawn) [Example 115, 4-(3-(1H-pyrazol-5-yl)piperidin-1-yl)-7-(8-ethylnaphthalen-1-yl)-2-((tetrahydro-1H-pyrrolizin-7a(5H)-yl)methoxy)-5,6,7,8-tetrahydropyrido[3,4-d]pyrimidine]: the 50% inhibitory concentration (IC50) at KRas^WT was 1.15 µM; at KRas^G12A, 1.11 µM; at KRas^G12D it was 3.04 µM; on KRas^G12R, 0.46 µM; at KRas^G12S it was 1.35 µM; at KRas^G12V it was 1.81 µM. The half-inhibitory concentration (IC50) on KRas^G12C was found to be 0.928 µM; on KRas^G13D, 1.4 µM; at KRas^Q61H it was 1.21 µM.

The values above are taken from US12421253B2 (Mirati Therapeutics, Inc., priority 2020, dated 2025).
